What was measured:
cGAS/STING pathway = experiment: THP1 cell-based cGAS/STING pathway activity assay (luciferase reporter linked to IRF-3 activation); settings: Homo sapiens, THP-1; THP1 cells, IRF-3 linked luciferase reporter
Procedure: A cellular assay can be used to assess the compounds of the invention for their ability to inhibit the cGAS/STING pathway. Cells that express a luciferase-based reporter that is linked to IRF-3 activation are used to determine response as a function of compound concentration. Such an assay is described in Vincent et al., Nature Communications 2017, 8(1):750, doi: 10.1038/s41467-017-00833-9. Compounds of the invention were assessed using similar assay methods in a THP1 cell assay to generate IC50 values as provided in the following Table 8. In this table, activity level “A” indicates an IC50 value less than 20 μM, “B” indicates an IC50 value between 20 and 100 μM, and “C” indicates an IC50 value above the upper limit of the assay (100 μM), or where an IC50 value could not be generated from the data.

[1] = target: T1, Human cGAS amino acids 155-522 (Homo sapiens, UniProt Q8N884); experiment: cGAS activity assay (DNA-activated cGAS, remaining ATP measured by Kinase-Glo Max luciferase assay); format: biochemical; settings: 300 nM purified cGAS, 1 μM dsDNA, 250 μM ATP, 100 μM GTP, 37° C. for 1.25 hours
T1 construct: hexahistidine tag (N, cleaved yes); made in house; host or cells: E. coli BL21 DE3 Rosetta 2
T1 sequence (Q8N884 157-522): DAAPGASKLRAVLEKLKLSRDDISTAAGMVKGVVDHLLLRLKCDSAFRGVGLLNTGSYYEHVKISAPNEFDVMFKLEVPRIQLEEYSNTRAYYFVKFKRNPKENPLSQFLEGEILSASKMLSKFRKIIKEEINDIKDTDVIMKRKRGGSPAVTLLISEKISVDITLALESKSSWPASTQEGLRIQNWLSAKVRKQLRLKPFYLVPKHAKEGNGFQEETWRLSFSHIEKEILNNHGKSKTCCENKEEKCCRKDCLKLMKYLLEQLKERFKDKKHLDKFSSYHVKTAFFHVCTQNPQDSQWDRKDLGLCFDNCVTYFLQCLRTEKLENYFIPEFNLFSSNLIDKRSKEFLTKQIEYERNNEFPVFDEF
Method in brief: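 Recombinant human cGAS 155-522 (300 nM) activated by 1 μM annealed dsDNA, run at 37° C for 1.25 h in Tris pH 9 buffer with 250 μM ATP and 100 μM GTP, 5% final DMSO. Compounds from 1 μM in 3- or 4-fold dilutions; remaining ATP read by luciferase luminescence, normalized to no-compound wells.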

| IC50 (cGAS/STING pathway) [µM] | IC50 [1] [µM] | SMILES |
| --- | --- | --- |
| > 100 | < 20 | COCCNC(=O)[C@H](Cc1ccc(C#N)cc1)Nc1nc(NCc2nc3cc(F)ccc3[nH]2)nc(Nc2cccc(CN3CCN(C(=O)c4nccnc4O)CC3)c2)n1 [TA1018, (S)-3-(4-cyanophenyl)-2-((4-(((5-fluoro-1H-benzo[d]imidazol-2-yl)methyl)amino)-6-((3-((4-(3-hydroxypyrazine-2-carbonyl)piperazin-1-yl)methyl)phenyl)amino)-1,3,5-triazin-2-yl)amino)-N-(2-methoxyethyl)propanamide] |
| > 100 | < 20 | N#Cc1ccc(C[C@H](Nc2nc(NCc3nc4cc(F)ccc4[nH]3)nc(Nc3cccc(CN4CCN(C(=O)c5nccnc5O)CC4)c3)n2)C(=O)O)cc1 [TA1071, (S)-3-(4-cyanophenyl)-2-((4-(((5-fluoro-1H-benzo[d]imidazol-2-yl)methyl)amino)-6-((3-((4-(3-hydroxypyrazine-2-carbonyl)piperazin-1-yl)methyl)phenyl)amino)-1,3,5-triazin-2-yl)amino)propanoic acid] |
| > 100 | < 20 | COC(=O)[C@H](Cc1ccc(C#N)cc1)Nc1nc(NCc2nc3cc(Cl)ccc3[nH]2)nc(Nc2cccc(CN3CCN(C(=O)c4c[nH]nn4)CC3)c2)n1 [TA1061, methyl (S)-2-((4-((3-((4-(1H-1,2,3-triazole-4-carbonyl)piperazin-1-yl)methyl)phenyl)amino)-6-(((5-chloro-1H-benzo[d]imidazol-2-yl)methyl)amino)-1,3,5-triazin-2-yl)amino)-3-(4-cyanophenyl)propanoate] |
| > 100 | < 20 | CN(C)C(=O)[C@H](Cc1ccc(C#N)cc1)Nc1nc(NCc2nc3cc(F)ccc3[nH]2)nc(Nc2cccc(CN3CCN(C(=O)c4nccnc4O)CC3)c2)n1 [TA1021, (S)-3-(4-cyanophenyl)-2-((4-(((5-fluoro-1H-benzo[d]imidazol-2-yl)methyl)amino)-6-((3-((4-(3-hydroxypyrazine-2-carbonyl)piperazin-1-yl)methyl)phenyl)amino)-1,3,5-triazin-2-yl)amino)-N,N-dimethylpropanamide] |
| > 100 | < 20 | COCCOCCOC(=O)[C@H](Cc1ccc(C#N)cc1)Nc1nc(NCc2nc3cc(F)ccc3[nH]2)nc(Nc2cccc(CN3CCN(C(=O)c4nccnc4O)CC3)c2)n1 [TA1070, 2-(2-methoxyethoxy)ethyl (S)-3-(4-cyanophenyl)-2-((4-(((5-fluoro-1H-benzo[d]imidazol-2-yl)methyl)amino)-6-((3-((4-(3-hydroxypyrazine-2-carbonyl)piperazin-1-yl)methyl)phenyl)amino)-1,3,5-triazin-2-yl)amino)propanoate] |
| > 100 | < 20 | CNC(=O)[C@H](Cc1ccc(C#N)cc1)Nc1nc(NCc2nc3cc(F)ccc3[nH]2)nc(Nc2cccc(CN3CCN(C(=O)c4nccnc4O)CC3)c2)n1 [TA1024, (S)-3-(4-cyanophenyl)-2-((4-(((5-fluoro-1H-benzo[d]imidazol-2-yl)methyl)amino)-6-((3-((4-(3-hydroxypyrazine-2-carbonyl)piperazin-1-yl)methyl)phenyl)amino)-1,3,5-triazin-2-yl)amino)-N-methylpropanamide] |
| > 100 | < 20 | COC(=O)[C@H](Cc1ccc(C#N)cc1)Nc1nc(NCc2nc3cc(F)ccc3[nH]2)nc(Nc2cccc(CN3CCN(C(=O)c4nccnc4O)CC3)c2)n1 [TA1020, methyl (S)-3-(4-cyanophenyl)-2-((4-(((5-fluoro-1H-benzo[d]imidazol-2-yl)methyl)amino)-6-((3-((4-(3-hydroxypyrazine-2-carbonyl)piperazin-1-yl)methyl)phenyl)amino)-1,3,5-triazin-2-yl)amino)propanoate] |

From US20210246122A1, “Triazine Compounds and Uses Thereof” (Aduro Biotech, Inc., priority 2018, published 2021)
